Reference: US20240082184A1, “IMPROVED TREATMENT FOR GLOBOID CELL LEUKODSYTROPHY OR KRABBE DISEASE” (priority 2021, published 2024)

What was measured:
Format in all cases: in vivo
GALC−/− mice [1] = assay: Open field locomotor activity; conditions: oral, 15 days
Description: The open field test was conducted for analyzing general motor activities of mice. Locomotor activities were monitored by open field performance and footprint analysis as described in previous studies. […] Mice were placed in the center of a square wooden open field arena (40×40 cm, 30 cm high walls) and allowed to explore freely for 5 min. The movements of the mice were recorded using a camera linked to the Noldus system and EthoVisionXT software. Several parameters including velocity, total distance moved, movement/center point frequency, body elongation, etc. were analyzed to assess the general locomotor activity.
Following 15 days of treatment, open field locomotor activities were measured. […] Parameters related to movement of animals were obtained from the software and presented as velocity center point (B), distance moved center point (C), movement-center point frequency (D), and body elongation (E).
Locomotor activity was monitored as in Example 5. Following 15 days of treatment, open field locomotor activities were measured. […] Parameters related to movement of animals were obtained from the software and presented as velocity center point (B), distance moved center point (C), movement-center point frequency (D), and body elongation (E).

GALC−/− mice [2] = assay: Lifespan (percentage of survival, Kaplan-Meier plot); conditions: oral
Excerpt: Heterozygous animals were used only for breeding purposes and were not used in the study. Animal maintaining and experiments were in accordance with National Institute of Health guidelines and were approved by the Institutional Animal Care and Use committee of the Rush University of Medical Center, Chicago, IL. Treated and untreated mice were allowed to survive humanely as long as possible. When a mouse reached a moribund stage, it was sacrificed.
As discussed below, after 2 weeks of oral feeding, several parameters were monitored including locomotor activity followed by examining myelin status and glial activation in cerebellum and corpus callosum. Longevity of GALC^−/− mice after drug treatment was also examined. In that case, GALC^−/− mice were treated with the drugs daily until mice reached the moribund stage.
Mice were treated continually until they reached the moribund stage at which point they were humanely sacrificed.

GALC−/− mice [3] = assay: Luxol fast blue (LFB) staining for myelin; conditions: cerebellum and corpus callosum, oral, 15 days
Excerpt: Cerebellar and corpus callosum sections of paraformaldehyde-fixed brain tissues were stained with Luxol fast blue for myelin as described elsewhere. […] FIG. 5 similarly depicts luxol fast blue (LFB) staining of myelin in the cerebellum (A) and corpus callosum (B) of GALC^−/− mice following identical treatment. Results represent analysis of two different sections of each of five mice (n=5) per group. […] FIG. 13 similarly depicts luxol fast blue (LFB) staining of myelin in the cerebellum (A) and corpus callosum (B) of GALC^−/− mice following identical treatment. Results represent analysis of two different sections of each of five mice (n=5) per group.

GALC−/− mice [4] = assay: Immunofluorescence (immunostaining) of brain sections for PLP, MFI; conditions: cerebellum and corpus callosum, oral, 15 days
Description: After 2 weeks of treatment, mice were anesthetized and perfused with PBS (pH 7.4) and then with 4% (w/v) paraformaldehyde solution in PBS. […] Briefly, brains were incubated in PBS containing 0.05% Tween 20 (PBST) and 10% sucrose for 3 h and then 30% sucrose overnight at 4° C. Hemisected brains was then embedded in O.C.T (Tissue Tech) at −80° C. and processed for conventional cryosectioning. Frozen cerebellar and corpus callosum sections (40 micron thick) were treated with cold ethanol (−20° C.) followed by two rinses in PBS, blocking with 3% bovine serum albumin in PBST and labeling with anti-PLP antibody. After three washes in PBST, sections were further incubated with Cy5 (Jackson ImmunoResearch Laboratories, Inc.). The samples were mounted and observed under the Olympus BX41 fluorescent microscope equipped with a Hamamatsu ORCA-03G camera. Captured images were calibrated with the scale bar and then opened in ImageJ software for further quantification analysis. […] The final MFI was analyzed after subtracting the value with the background signal of respective images.
DAPI was used to visualize nucleus. Mean fluorescence intensity (MFI) of PLP was quantified (C, cerebellum; D, corpus callosum) in two different sections of each of five mice (n=5) per group. […]

GALC−/− mice [5] = assay: Levels of myelin proteins PLP and MBP in brain by Western blot; conditions: gemfibrozil 8 mg/kg/d alone or with vitamin A 150 IU/kg/d
GALC−/− mice [6] = assay: Astroglial activation: GFAP and iNOS levels in brain by Western blot; conditions: gemfibrozil 8 mg/kg/d alone or with vitamin A 150 IU/kg/d, oral, 15 days
[7] = cerebellum, oral gavage, 15 days from 10 d of age, FIG. 2
[8] = corpus callosum, oral, 15 days, FIG. 3

Compound	motor activity in open field versus vehicle treatment (GALC−/− mice [1]; cinnamic acid 25 and 50 mg/kg/day, FIG. 16)	lifespan (percentage of survival) (GALC−/− mice [2]; cinnamic acid 25 and 50 mg/kg/day, until moribund stage, FIG. 17)	myelin status by luxol fast blue (LFB) staining (GALC−/− mice [3]; cinnamic acid 25 and 50 mg/kg/day, FIG. 13)	myelin status by PLP immunostaining (MFI of PLP) (GALC−/− mice [4]; cinnamic acid 25 and 50 mg/kg/day, FIG. 12)	motor activity in open field versus vehicle treatment (GALC−/− mice [1]; gemfibrozil 8 mg/kg/d alone or with vitamin A 150 IU/kg/d, FIG. 8)	lifespan (percentage of survival) (GALC−/− mice [2]; gemfibrozil 8 mg/kg/d alone or with vitamin A 150 IU/kg/d, daily until moribund stage, FIG. 9)	myelin status by luxol fast blue (LFB) staining (GALC−/− mice [3]; gemfibrozil 8 mg/kg/d alone or with vitamin A 150 IU/kg/d, FIG. 5)	level of MBP (MBP/Actin relative to control) (GALC−/− mice [5]; [7])	level of PLP (PLP/Actin relative to control) (GALC−/− mice [5]; [7])	level of MBP (MBP/Actin relative to control) (GALC−/− mice [5]; [8])	level of PLP (PLP/Actin relative to control) (GALC−/− mice [5]; [8])	myelin status by PLP immunostaining (MFI of PLP) (GALC−/− mice [4]; gemfibrozil 8 mg/kg/d alone or with vitamin A 150 IU/kg/d, FIG. 4)	level of GFAP (GFAP/Actin relative to control) (GALC−/− mice [6]; cerebellum, FIG. 6)	level of iNOS (iNOS/Actin relative to control) (GALC−/− mice [6]; cerebellum, FIG. 6)	level of GFAP (GFAP/Actin relative to control) (GALC−/− mice [6]; corpus callosum, FIG. 7)	level of iNOS (iNOS/Actin relative to control) (GALC−/− mice [6]; corpus callosum, FIG. 7)
O=C(O)C=Cc1ccccc1 [cinnamic acid]	increased	increases the lifespan	protection of myelin	protecting myelin												
Cc1ccc(C)c(OCCCC(C)(C)C(=O)O)c1 [gemfibrozil]					increased	increase the lifespan	protection of myelin	significantly increased	significantly increased	significantly increased	significantly increased	protecting myelin	significantly reduced	significantly reduced	significantly reduced	significantly reduced
